Results published in ChEMBL document CHEMBL4340512, “Discovery of novel triazolo[4,3-b]pyridazin-3-yl-quinoline derivatives as PIM inhibitors” (Eur J Med Chem, 2019).

Experiments:
[1] = molecular target: T1, Serine/threonine-protein kinase pim-1 (Homo sapiens, UniProt P11309); assay: Inhibition of PIM1 in human NCI-H1299 cells assessed as reduction in BAD phosphorylation at Ser-112 residue incubated for 4 hrs by ELISA; format: cell-based
[2] = molecular target: Serine/threonine-protein kinase pim-3 (Homo sapiens, UniProt Q86V86); assay: Inhibition of N-terminal 6-His tagged human recombinant PIM3 using PIM tide (ARKRRRHPSGPPTA) as substrate incubated for 1 hr by fluorescence based assay
[3] = molecular target: Serine/threonine-protein kinase pim-2 (Homo sapiens, UniProt Q9P1W9); assay: Inhibition of His tagged human recombinant PIM2 using PIM tide (ARKRRRHPSGPPTA) as substrate incubated for 1 hr by fluorescence based assay
[4] = molecular target: T1, Serine/threonine-protein kinase pim-1; assay: Inhibition of His tagged human recombinant PIM1 using PIM tide (ARKRRRHPSGPPTA) as substrate incubated for 1 hr by fluorescence based assay
PC-3 = assay: Antiproliferative activity against human PC3 cells incubated for 72 hrs by CellTiter-Glo luminescence assay; format: functional; settings: PC-3, 72 h
[5] = molecular target: T2, Receptor-type tyrosine-protein kinase FLT3 (Homo sapiens, UniProt P36888); assay: Inhibition of human FLT3 using EAIYAAPFAKKK as substrate incubated for 60 mins by fluorescence based assay
T2 sequence (P36888 whole entry): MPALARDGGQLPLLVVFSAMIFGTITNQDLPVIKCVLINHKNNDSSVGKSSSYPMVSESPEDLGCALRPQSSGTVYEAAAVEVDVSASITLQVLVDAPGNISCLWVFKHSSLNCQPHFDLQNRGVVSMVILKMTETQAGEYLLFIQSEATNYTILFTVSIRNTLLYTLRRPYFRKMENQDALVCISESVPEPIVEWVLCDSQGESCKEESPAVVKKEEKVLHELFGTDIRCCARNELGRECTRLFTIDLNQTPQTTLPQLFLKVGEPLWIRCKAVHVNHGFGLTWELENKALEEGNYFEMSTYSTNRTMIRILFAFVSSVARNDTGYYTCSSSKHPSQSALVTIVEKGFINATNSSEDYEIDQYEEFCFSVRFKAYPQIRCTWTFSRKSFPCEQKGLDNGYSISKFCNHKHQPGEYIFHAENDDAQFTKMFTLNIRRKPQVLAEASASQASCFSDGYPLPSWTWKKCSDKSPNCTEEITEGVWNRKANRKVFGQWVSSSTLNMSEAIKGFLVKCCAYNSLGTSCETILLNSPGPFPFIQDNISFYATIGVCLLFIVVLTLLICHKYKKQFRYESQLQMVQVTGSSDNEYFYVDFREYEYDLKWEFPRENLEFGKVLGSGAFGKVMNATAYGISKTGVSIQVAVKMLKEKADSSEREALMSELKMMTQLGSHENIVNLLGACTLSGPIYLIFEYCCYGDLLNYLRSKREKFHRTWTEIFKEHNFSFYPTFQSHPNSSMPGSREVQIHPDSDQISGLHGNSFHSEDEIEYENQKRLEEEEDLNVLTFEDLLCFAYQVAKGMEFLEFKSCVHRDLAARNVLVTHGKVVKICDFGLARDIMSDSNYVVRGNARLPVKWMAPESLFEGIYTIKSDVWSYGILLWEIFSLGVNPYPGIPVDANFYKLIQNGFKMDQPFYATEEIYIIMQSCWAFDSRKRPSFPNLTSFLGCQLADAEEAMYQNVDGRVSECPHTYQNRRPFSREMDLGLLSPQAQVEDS

[6] = molecular target: Voltage-gated inwardly rectifying potassium channel KCNH2 (Homo sapiens, UniProt Q12809)
[7] = Clearance in iv dosed Balb/c mouse administered as single dose measured after 0.08 to 4 hrs by HPLC/MS analysis; format: ADME, organism-based; settings: in vivo
[8] = Clearance in iv dosed Balb/c mouse administered as single dose measured after 0.08 to 4 hrs by HPLC/MS analysis relative to hepatic blood flow; format: ADME, organism-based; settings: in vivo
MDA-MB-231 = assay: Antiproliferative activity against human MDA-MB-231 cells incubated for 72 hrs by CellTiter-Glo luminescence assay; format: functional; settings: MDA-MB-231, 72 h
SK-MEL19 = assay: Antiproliferative activity against human SK-MEL-19 cells incubated for 72 hrs by CellTiter-Glo luminescence assay; format: functional; settings: SK-MEL19, 72 h
MV4-11 = assay: Antiproliferative activity against human MV4-11 cells incubated for 72 hrs by CellTiter-Glo luminescence assay; format: functional; settings: MV4-11, 72 h

Row | Structure (SMILES) | IC50 [2] | IC50 [3] | IC50 [4] | EC50 ([1]; read-out: EC50) | other results
1 | O=C(CCCCCCC(=O)Nc1ccccc1)NO [VORINOSTAT] |  |  |  |  | GI50 (PC-3): 5000 nM
2 | CN1CCC(Nc2cccc3ccc(-c4nnc5c6c(cnn45)N(C)CCO6)nc23)CC1 | 40 nM | 2870 nM | 7 nM | 212 nM | IC50 [5]: > 10000 nM; IC50 [6]: > 20000 nM
3 | CC(C)N1CCOc2c1cnn1c(-c3ccc4cccc(NCC5CCNCC5)c4n3)nnc21 | 76 nM | 1650 nM | 16 nM | 915 nM | 
4 | CN1CCOc2c1cnn1c(-c3ccc4ccnc(NC5CCCCC5)c4c3)nnc21 | 238 nM | 1100 nM | 26 nM | 110 nM | IC50 [5]: > 10000 nM
5 | CN1CCOc2c1cnn1c(-c3ccc4cccc(NC5CCOCC5)c4n3)nnc21 | 358 nM | 2470 nM | 25 nM | 322 nM | 
6 | CN1CCOc2c1cnn1c(-c3cccc(C(=O)NCC4CCNCC4)n3)nnc21 |  |  | 7100 nM |  | 
7 | CC(C)C[C@H](NC(=O)[C@H](Cc1ccccc1)NC(=O)c1cnccn1)B(O)O [BORTEZOMIB] |  |  |  |  | GI50 (PC-3): 40 nM
8 | CN1CCOc2c1cnn1c(-c3ccc4ccnc(NCC5(F)CCNCC5)c4c3)nnc21 | 26 nM | 122 nM | 7 nM | 200 nM | IC50 [5]: > 10000 nM; clearance [7]: 23.2 mL/min/kg; CLH [8]: < 30%; IC50 [6]: > 20000 nM
9 | CN1CCOc2c1cnn1c(-c3ccc4cccc(N5CCC(N)CC5)c4n3)nnc21 | 80 nM | 2140 nM | 38 nM | 5310 nM | 
10 | CN1CCOc2c1cnn1c(-c3cccc(-c4cccc(NC5CCNCC5)c4)n3)nnc21 |  |  | 425 nM |  | 
11 | CCCN1CCOc2c1cnn1c(-c3ccc4cccc(NCC5CCNCC5)c4n3)nnc21 | 60 nM | 4010 nM | 12 nM | 800 nM | 
12 | CN1CCOc2c1cnn1c(-c3cccc(-c4cccc(NCC5CCNCC5)c4)n3)nnc21 |  |  | 785 nM |  | 
13 | CN1CCOc2c1cnn1c(-c3ccc4cc(F)cc(NCC5(F)CCNCC5)c4n3)nnc21 | 7 nM | 858 nM | 10 nM | 465 nM | 
14 | O=C(NOC[C@H](O)CO)c1ccc(F)c(F)c1Nc1ccc(I)cc1F [MIRDAMETINIB] |  |  |  |  | GI50 (MDA-MB-231): 1000 nM
15 | CC(=O)O[C@@]12CO[C@@H]1C[C@H](O)[C@@]1(C)C(=O)[C@H](O)C3=C(C)[C@@H](OC(=O)[C@H](O)[C@@H](NC(=O)OC(C)(C)C)c4ccccc4)C[C@@](O)([C@@H](OC(=O)c4ccccc4)[C@H]21)C3(C)C [DOCETAXEL ANHYDROUS] |  |  |  |  | GI50 (SK-MEL19): 2 nM; GI50 (MV4-11): 0.5 nM
16 | CN1CCOc2c1cnn1c(-c3ccc4cccc(NCC5CCOCC5)c4c3)nnc21 | 281 nM | 9940 nM | 20 nM |  | 
17 | CN1CCOc2c1cnn1c(-c3ccnc(NC4CCNCC4)c3)nnc21 |  |  | > 10000 nM |  | 
18 | CN1CCOc2c1cnn1c(-c3ccc4cccc(NC5CCCCC5)c4n3)nnc21 | 300 nM | 3330 nM | 32 nM | 220 nM | IC50 [5]: > 10000 nM; clearance [7]: 23.7 mL/min/kg; CLH [8]: < 30%; IC50 [6]: > 20000 nM
19 | CN1CCOc2c1cnn1c(-c3ccc4cccc(NCC5CCOCC5)c4n3)nnc21 | 402 nM | 6210 nM | 30 nM | 325 nM | 
20 | CN1CCC(CNc2cccc3ccc(-c4nnc5c6c(cnn45)N(C)CCO6)nc23)CC1 | 82 nM | 4250 nM | 14 nM | 179 nM | IC50 [5]: > 10000 nM; IC50 [6]: > 20000 nM
21 | CN1CCOc2c1cnn1c(-c3ccc4cccc(NC5CCNCC5)c4n3)nnc21 | 95 nM | 690 nM | 12 nM | 1380 nM | 

Second part, led by results:

Row | IC50 [2] | IC50 [3] | IC50 [4] | EC50 ([1]; read-out: EC50) | Structure (SMILES) | other results
22 | 1 nM | 1270 nM | 30 nM |  | CN1CCOc2c1cnn1c(-c3ccc4cc(Cl)cc(NCC5(F)CCNCC5)c4n3)nnc21 | EC50 ([1]; nci-h1299): Not Active
23 | 4080 nM | > 10000 nM | 92 nM |  | CN1CCOc2c1cnn1c(-c3ccc4cccc(NC5CCC(C)(C)CC5)c4n3)nnc21 | EC50 ([1]; nci-h1299): Not Active
24 | 58 nM | 1930 nM | 13 nM | 780 nM | CCN1CCOc2c1cnn1c(-c3ccc4cccc(NCC5CCNCC5)c4n3)nnc21 | 
25 | 131 nM | 3740 nM | 36 nM | 330 nM | CN1CCOc2c1cnn1c(-c3ccc4cccc(NC(=O)C5CCNCC5)c4n3)nnc21 | 
26 | > 10000 nM | > 1000 nM | 420 nM |  | CN1CCOc2c1cnn1c(-c3ccc4cccc(NCC5CCCCC5)c4n3)nnc21 | 
27 |  |  | > 10000 nM |  | CN1CCOc2c1cnn1c(C(=O)Nc3ccccc3NCC3CCNCC3)nnc21 | 
28 | 257 nM | > 10000 nM | 200 nM | 5360 nM | CN1CCOc2c1cnn1c(-c3ccc4cccc(N5CCNCC5)c4n3)nnc21 | 
29 |  |  | 870 nM |  | CN1CCOc2c1cnn1c(-c3cccc(C(=O)NCC4CCNCC4)c3)nnc21 | 
30 |  |  | > 10000 nM |  | CN1CCOc2c1cnn1c(C(=O)Nc3ccccc3NC3CCNCC3)nnc21 | 
31 | 17 nM | 4260 nM | 14 nM | 700 nM | CN1CCOc2c1cnn1c(-c3ccc4cccc(NCC5CCNCC5)c4n3)nnc21 | 
32 | 1550 nM | 8040 nM | 46 nM | 265 nM | CN1CCOc2c1cnn1c(-c3ccc4cccc(NC5CCCCC5)c4c3)nnc21 | IC50 [5]: > 10000 nM; IC50 [6]: 6060 nM
33 |  |  | 1100 nM |  | CN1CCOc2c1cnn1c(C(=O)Nc3ccccc3OCC3CCNCC3)nnc21 | 
34 | 140 nM | 4690 nM | 17 nM | 2020 nM | c1ccc(OCCN2CCOc3c2cnn2c(-c4ccc5cccc(NCC6CCNCC6)c5n4)nnc32)cc1 | 
35 |  | > 10000 nM | 236 nM | 5960 nM | Cc1cc(NCC2(F)CCNCC2)c2nc(-c3nnc4c5c(cnn34)N(C)CCO5)ccc2c1 | 
36 |  |  | > 10000 nM |  | CN1CCOc2c1cnn1c(-c3cccc(NCC4CCNCC4)c3)nnc21 | 
37 | 14 nM | 3010 nM | 30 nM | 283 nM | CN1CCOc2c1cnn1c(-c3ccc4c(F)ccc(NCC5(F)CCNCC5)c4n3)nnc21 | IC50 [5]: 3970 nM; clearance [7]: 9.33 mL/min/kg; CLH [8]: < 30%; IC50 [6]: > 20000 nM
38 | 6 nM | 27 nM | 4 nM | 2510 nM | CN1CCOc2c1cnn1c(-c3ccc4ccnc(NCC5CCNCC5)c4c3)nnc21 | 
39 | 12 nM | 3590 nM | 18 nM | 155 nM | CN1CCOc2c1cnn1c(-c3ccc4c(F)c(F)cc(NCC5(F)CCNCC5)c4n3)nnc21 | IC50 [5]: 6320 nM; clearance [7]: 3.83 mL/min/kg; CLH [8]: < 30%; IC50 [6]: > 20000 nM
40 | 58 nM | 4870 nM | 6 nM | 865 nM | CN1CCOc2c1cnn1c(-c3ccc4cccc(NCC5CCNCC5)c4c3)nnc21 | 
41 | 6 nM | 696 nM | 12 nM | 71 nM | CN1CCOc2c1cnn1c(-c3ccc4ccc(Cl)c(NCC5(F)CCNCC5)c4n3)nnc21 | IC50 [5]: > 10000 nM; IC50 [6]: 2100 nM
42 | 55 nM | 5530 nM | 21 nM | 215 nM | CN1CCOc2c1cnn1c(-c3ccc4cccc(NCC5(F)CCNCC5)c4n3)nnc21 | IC50 [5]: > 10000 nM
